The values that follow are results of earlier work, collected in patent US20190048020A1, “DEUTERIUM-MODIFIED CFTR MODULATORS” (VERTEX PHARMACEUTICALS (EUROPE) LIMITED, priority 2016, published 2019).

This data set addresses T1, CFTR G5551D mutation (Homo sapiens, UniProt P13569, G551D).
T1 construct: phase II study in patients with the CFTR G5551D mutation; host or cells: patients (in vivo, sweat chloride read-out)
The following applies: phase II study, patients with the CFTR G5551D mutation.

T1 sequence (P13569 whole entry G551D): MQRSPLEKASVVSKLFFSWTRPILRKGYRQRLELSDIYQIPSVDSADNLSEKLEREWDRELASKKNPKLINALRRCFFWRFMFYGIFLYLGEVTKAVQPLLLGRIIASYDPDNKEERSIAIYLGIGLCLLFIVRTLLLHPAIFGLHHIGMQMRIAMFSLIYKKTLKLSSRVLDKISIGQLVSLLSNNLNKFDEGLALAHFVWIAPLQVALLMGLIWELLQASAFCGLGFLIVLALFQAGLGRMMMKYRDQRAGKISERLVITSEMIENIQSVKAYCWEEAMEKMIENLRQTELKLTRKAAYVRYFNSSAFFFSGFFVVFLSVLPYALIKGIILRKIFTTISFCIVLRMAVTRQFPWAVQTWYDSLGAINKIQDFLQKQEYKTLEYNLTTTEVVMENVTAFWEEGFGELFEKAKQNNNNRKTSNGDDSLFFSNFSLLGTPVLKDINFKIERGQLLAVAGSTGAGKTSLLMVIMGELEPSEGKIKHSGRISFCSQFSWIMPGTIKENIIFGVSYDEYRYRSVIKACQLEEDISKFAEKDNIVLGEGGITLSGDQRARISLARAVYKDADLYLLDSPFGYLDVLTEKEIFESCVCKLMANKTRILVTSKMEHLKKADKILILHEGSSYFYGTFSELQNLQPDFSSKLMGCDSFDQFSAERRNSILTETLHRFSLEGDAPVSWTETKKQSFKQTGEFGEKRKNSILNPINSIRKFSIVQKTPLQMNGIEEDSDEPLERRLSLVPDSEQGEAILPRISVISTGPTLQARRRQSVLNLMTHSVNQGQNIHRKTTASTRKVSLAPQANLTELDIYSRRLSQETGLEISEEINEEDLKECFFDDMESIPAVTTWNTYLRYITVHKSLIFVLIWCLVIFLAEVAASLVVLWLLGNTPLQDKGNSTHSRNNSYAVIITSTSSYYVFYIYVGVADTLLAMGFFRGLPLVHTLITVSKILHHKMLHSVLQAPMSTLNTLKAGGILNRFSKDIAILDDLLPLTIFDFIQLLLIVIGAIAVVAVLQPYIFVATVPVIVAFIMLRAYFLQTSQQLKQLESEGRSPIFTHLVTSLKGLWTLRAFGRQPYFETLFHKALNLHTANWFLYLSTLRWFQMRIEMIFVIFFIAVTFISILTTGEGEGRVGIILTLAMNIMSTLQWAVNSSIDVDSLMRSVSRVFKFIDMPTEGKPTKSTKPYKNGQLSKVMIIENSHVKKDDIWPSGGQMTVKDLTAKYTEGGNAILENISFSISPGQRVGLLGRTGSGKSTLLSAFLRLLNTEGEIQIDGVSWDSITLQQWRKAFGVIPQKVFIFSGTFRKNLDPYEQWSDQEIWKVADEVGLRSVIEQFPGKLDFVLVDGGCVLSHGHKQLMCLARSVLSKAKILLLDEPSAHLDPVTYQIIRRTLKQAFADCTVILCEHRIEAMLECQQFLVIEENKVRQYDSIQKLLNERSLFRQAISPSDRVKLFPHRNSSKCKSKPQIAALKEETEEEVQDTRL

Turning to `CC1(C)Cc2c(sc(NC(=O)c3ccn[nH]3)c2C(N)=O)C(C)(C)O1` [GLPG1837], the sweat chloride concentration result was “statistically significant dose-dependent decrease”.
